In US11344510B2, “Arylcyclohexylamine derivatives and their use in the treatment of psychiatric disorders” (Gilgamesh Pharmaceuticals, Inc., priority 2019, dated 2022):
Where two headings read alike, the source gives them in different places.

Assays:
[1] = Oral bioavailability in mice, Method B; type: in vivo; details: CD-1 mice; for AUC0-inf (iv) / AUC0-last (po) / AUC(0-inf): Method B: values represent AUC0-last (footnote); for F: 10 mg/kg; for half-life / Cmax / AUC(0-inf): male, mouse
Method: Animals. Male CD-1 mice were used in these studies Animals were randomly assigned to treatment groups and were fasted for 4 h before oral dosing.
Drugs. Test compounds were dissolved in a vehicle consisting of normal saline (compounds 19S and 88R) or a mixture of 5% v/v N-methyl-2-pyrrolidone, 5% v/v Solutol HS-15, and 90% v/v normal saline (compounds 11S, 11R, 114S, and 114R). They were then administered intravenously (iv) or orally (po) at a dose of 10 mg/kg (calculated based on freebase) and at a volume of 5 mL/kg body weight. Compounds were tested as the racemates (indicated by “rac” nomenclature) or pure enantiomers (indicated by “R” or “S” nomenclature).
Sample Collection and Bioanalysis. Blood samples (approximately 60 μL) were collected under light isoflurane anesthesia (Surgivet®) from the retro orbital plexus at 0.08, 0.25, 0.5, 1, 2, 4, 8, and 24 h (4 animals per time point) Immediately after blood collection, plasma was harvested by centrifugation at 4000 rpm for 10 min at 4° C. and samples were stored at −70±10° C. until bioanalysis. Following blood collection, animals were immediately sacrificed, the abdominal vena-cava was cut open, and the whole body was perfused from the heart using 10 mL of normal saline, and brain samples were collected from all animals After isolation, brain samples were rinsed three times in ice-cold normal saline (for 5-10 seconds/rinse using ˜5-10 mL normal saline in disposable petri dish for each rinse) and dried on blotting paper. Brain samples were homogenized using ice-cold phosphate-buffered saline (pH 7.4). Total homogenate volume was three times the tissue weight. All homogenates were stored at −70±10° C. until bioanalysis. For bioanalysis, 25 μL aliquots of plasma/brain study samples or spiked plasma/brain calibration standards were added to individual pre-labeled micro-centrifuge tubes followed by 100 μL of an internal standard solution (glipizide, 500 ng/mL in acetonitrile) except for blanks, where 100 μL of acetonitrile was added. Samples were vortexed for 5 minutes and then centrifuged for 10 minutes at 4000 rpm at 4° C. Following centrifugation, 100 μL of each clear supernatant was transferred to a 96 well plate and analyzed with a fit-for-purpose LC-MS/MS method, with authentic samples of each analyte used for calibration and identification.
(§1) Data Analysis. Pharmacokinetic parameters were estimated using the non-compartmental analysis tool of Phoenix® WinNonlin software (Ver 8.0).

[2] = MLM stability (High Activity); type: in vitro ADME, BALB/c mice; details: male, BALB/c, mouse, liver microsomes, pH 7.4, Condition 2 (High Activity), 1.0 mg protein/mL
Summary of the method: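 Pooled male BALB/c mouse liver microsomes (1.0 mg/mL) in 100 mM PBS pH 7.4 with NADPH-regenerating system; compound 1 μM, 37 °C, five time points over 60 min, duplicate; NADPH-free controls. Parent remaining by LC-MS/MS; kel, t1/2 and Clint from linear regression of ln(AUC) versus time.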

[3] = Oral bioavailability in rats, Method B; type: in vivo; details: Sprague Dawley rats; for AUC(0-t) / half-life / Cmax: male, rat; for AUC(0-t) / half-life / Cmax / F: plasma, Method B; for F: 10 mg/kg
Method: Animals. Male Sprague Dawley rats were used in these studies. Animals were randomly assigned to treatment groups and were fasted overnight before oral dosing.
Drugs. Test compounds were dissolved in a vehicle consisting of normal saline (compounds 14R, 88R, 29rac, and 27rac) or a mixture of 5% v/v N-methyl-2-pyrrolidone, 5% v/v Solutol HS-15, and 90% v/v normal saline (compounds 84R and 84S). They were then administered intravenously (iv) or orally (po) at a dose of 10 mg/kg (calculated based on freebase) and at a volume of 5 mL/kg body weight. Compounds were tested as the racemates (indicated by “rac” nomenclature) or pure enantiomers (indicated by “R” or “S” nomenclature).
Sample Collection and Bioanalysis. Blood samples (approximately 120 μL) were collected under light isoflurane anesthesia (Surgivet®) from the retro orbital plexus at 0.08, 0.25, 0.5, 1, 2, 4, 8, and 24 h (total 8 time points/rat, 4 rats per administration route per compound). Immediately after blood collection, plasma was harvested by centrifugation at 4000 rpm for 10 min at 4° C. and samples were stored at −70±10° C. until bioanalysis. For bioanalysis, 25 μL aliquots of plasma study samples or spiked plasma calibration standards were added to individual pre-labeled micro-centrifuge tubes followed by 100 μL of an internal standard solution (glipizide, 500 ng/mL in acetonitrile) except for blanks, where 100 μL of acetonitrile was added. Samples were vortexed for 5 minutes and then centrifuged for 10 minutes at 4000 rpm at 4° C. Following centrifugation, 100 μL of each clear supernatant was transferred to a 96 well plate and analyzed with a fit-for-purpose LC-MS/MS method, with authentic samples of each analyte used for calibration and identification. In the case of compounds 14R and 88R, their metabolite 11R was also quantified in plasma samples.
as §1

[4] = calculated based on brain exposure (AUC0-last), Method B
[5] = brain, 10 mg/kg iv, Method B, read-out: t1/2 (iv)
[6] = plasma, 10 mg/kg iv, read-out: AUC0-inf (iv) (converted)
[7] = plasma, 10 mg/kg iv, Method B, read-out: t1/2 (iv)
[8] = plasma, 10 mg/kg po, read-out: AUC0-inf (po) (converted)
[9] = plasma, Method B: based on AUC0-last
[10] = brain, 10 mg/kg po, Method B, read-out: t1/2 (po)
[11] = plasma, 10 mg/kg po, Method B, read-out: t1/2 (po)
[12] = 10 mg/kg iv, read-out: AUC0-last (iv) (converted)
[13] = 10 mg/kg iv, read-out: t1/2 (iv)
[14] = 10 mg/kg po, read-out: AUC0-last (po) (converted)
[15] = 10 mg/kg po, read-out: t1/2 (po)

| Compound | AUC0-inf (iv) ([1]; brain, 10 mg/kg iv) | AUC0-last (po) ([1]; brain, 10 mg/kg po) | F [1, 4] | half-life [1, 5] | Cmax ([1]; brain, 10 mg/kg po, Method B) | AUC(0-inf) [1, 6] | half-life [1, 7] | Cmax ([1]; plasma, 10 mg/kg po, Method B) | AUC(0-inf) [1, 8] | F [1, 9] | half-life at 1 μM [2] | microsomal CLint at 1 μM [2] | half-life [1, 10] | half-life [1, 11] | AUC(0-t) [3, 12] | half-life [3, 13] | Cmax ([3]; 10 mg/kg po) | AUC(0-t) [3, 14] | half-life [3, 15] | F [3] | other results |
| --- | --- | --- | --- | --- | --- | --- | --- | --- | --- | --- | --- | --- | --- | --- | --- | --- | --- | --- | --- | --- | --- |
| N[C@]1(c2ccccc2)CCCCC1=O [Compound 11S, (S)-2-amino-2-phenyl-cyclohexan-1-one] | 434,023 ng*min/g | 292,247 ng*min/g | 67% | 0.7 h | 2190 ng/g | 3420 ng·h/mL | 1.06 h | 2130 ng/mL | 4200 ng·h/mL | 123% | 3.62 h | 3 µL/min/mg |  |  |  |  |  |  |  |  |  |
| N[C@@]1(c2ccccc2)CCCCC1=O [Compound 11R, (R)-2-amino-2-phenyl-cyclohexan-1-one] | 621,341 ng*min/g | 220,091 ng*min/g | 35% | 1.17 h | 1470 ng/g | 5570 ng·h/mL | 1.11 h | 1430 ng/mL | 4210 ng·h/mL | 76% | 2.82 h | 4 µL/min/mg | 1.9 h | 2.41 h |  |  |  |  |  |  |  |
| Cc1ccccc1[C@@]1(N)CCCCC1=O [Compound 114S, (S)-2-amino-2-(o-tolyl)cyclohexan-1-one] | 244,634 ng*min/g | 86,338 ng*min/g | 35% |  | 825 ng/g | 757 ng·h/mL | 1.34 h | 746 ng/mL | 1470 ng·h/mL | 194% |  |  |  | 1.32 h |  |  |  |  |  |  |  |
| CNC1(c2ccccc2Cl)CCCCC1=O (racemic) [rac-ketamine, racemic ketamine, reference compound] |  |  |  |  |  |  |  |  |  |  | 0.155 h | 75 µL/min/mg |  |  |  |  |  |  |  |  |  |
| CN[C@]1(c2cccc(F)c2)CCCCC1=O [Compound 19S, (5)-2-(3-fluorophenyl)-2-(methylamino)cyclohexan-1-one] | 171,028 ng*min/g | 23,552 ng*min/g | 14% | 1.93 h | 436 ng/g | 1130 ng·h/mL | 1.9 h | 442 ng/mL | 671 ng·h/mL | 59% | 1.01 h | 11 µL/min/mg | 2.35 h | 2.28 h |  |  |  |  |  |  |  |
| O=C1CCCC[C@]1(c1ccccc1)N1CCC1 [Compound 84R, (R)-2-(azetidin-1-yl)-2-phenyl-cyclohexan-1-one] |  |  |  |  |  |  |  |  |  |  | 0.378 h | 30 µL/min/mg |  |  | 369 ng·h/mL | 0.62 h | 15.5 ng/mL | 11.9 ng·h/mL | 0.45 h | 3% |  |
| CN[C@]1(c2ccccc2)CCCCC1=O [Compound 14S, (S)-2-(methylamino)-2-phenylcyclohexan-1-one] |  |  |  |  |  |  |  |  |  |  | 4.38 h | 3 µL/min/mg |  |  |  |  |  |  |  |  |  |
| COCCNC1(c2ccccc2)CCCCC1=O (racemic) [Compound 29rac, 2-((2-methoxyethyl)amino)-2-phenylcyclohexan-1-one] |  |  |  |  |  |  |  |  |  |  | 0.283 h | 41 µL/min/mg |  |  | 1710 ng·h/mL | 1.1 h | 321 ng/mL | 353 ng·h/mL | 1.15 h | 21% |  |
| O=C1CCCC[C@@]1(c1ccccc1)N1CCC1 [Compound 84S, (S)-2-(azetidin-1-yl)-2-phenyl-cyclohexan-1-one] |  |  |  |  |  |  |  |  |  |  | 0.322 h | 36 µL/min/mg |  |  | 482 ng·h/mL | 0.77 h | 69.8 ng/mL | 77 ng·h/mL | 0.62 h | 16% |  |
| Cc1ccccc1[C@]1(N)CCCCC1=O [Compound 114R, (R)-2-amino-2-(o-tolyl)cyclohexan-1-one] | 155,752 ng*min/g | 38,185 ng*min/g | 25% | 0.32 h | 683 ng/g | 325 ng·h/mL | 0.75 h | 319 ng/mL | 430 ng·h/mL | 132% |  |  | 1.12 h | 1.28 h |  |  |  |  |  |  |  |
| CN[C@@]1(c2ccccc2)CCCCC1=O [Compound 14R, (R)-2-(methylamino)-2-phenylcyclohexan-1-one] |  |  |  |  |  |  |  |  |  |  | 3.28 h | 4 µL/min/mg |  |  | 1960 ng·h/mL | 0.63 h | 235 ng/mL | 237 ng·h/mL | 0.51 h | 12% |  |
| O=C1CCCCC1(c1ccccc1)N1CCCC1 (racemic) [Compound 27rac, 2-phenyl-2-(pyrrolidin-1-yl)cyclohexan-1-one] |  |  |  |  |  |  |  |  |  |  | 0.583 h | 20 µL/min/mg |  |  | 1710 ng·h/mL | 1.62 h | 197 ng/mL | 563 ng·h/mL | 2.42 h | 33% |  |
| [2H]C([2H])([2H])N[C@@]1(c2ccccc2)CCCCC1=O [Compound 88R, (R)-2-((methyl-d3)amino)-2-phenylcyclohexan-1-one] | 334,518 ng*min/g | 143,445 ng*min/g | 43% | 0.6 h | 3100 ng/g | 1530 ng·h/mL | 0.57 h | 621 ng/mL | 718 ng·h/mL | 47% | 1.76 h | 7 µL/min/mg | 1.33 h | 1.38 h | 1670 ng·h/mL | 0.99 h | 393 ng/mL | 335 ng·h/mL | 0.76 h | 20% | formation of the metabolite 11R compared to 14R after oral administration ([3]; 10 mg/kg po): reduced |
